Experimental data from publication PMC9250534, “Synthesis and direct assay of large macrocycle diversities by combinatorial late-stage modification at picomole scale” (Nature Communications, 2022).
Numbered stars: 1 amine (or outer) side, 2 acyl side, 3 side chain; on linkers, the order of the positions; unused ones are H or OH. Bridge positions count the residues as written; N and C are the ends. Square brackets hold non-standard residues; d marks the D form. Peptide text beside a SMILES is read from it. * marks the point of attachment. Isoorotoyl = O=C(c1c[nH]c(=O)[nH]c1=O)*; 2Thenoyl(5-Cl) = O=C(c1ccc(Cl)s1)*; Pyrazinecarbonyl = O=C(c1cnccn1)*; Phenoxyacetyl = O=C(COc1ccccc1)*; Cysteamide = C(CS[*:3])N[*:1]; X3 = O=C(Cc1c[nH]c2ccccc12)*; Mpa = O=C(O)CCS

Molecular target: T1, thrombin (Homo sapiens, UniProt P00734)
T1 construct: consists of two polypeptide chains of 36 (light chain) and 259 amino acid
Experiment: Thrombin inhibition screen of crude macrocycle reactions (residual thrombin activity, fluorogenic substrate Z-Gly-Gly-Arg-AMC)
Type: biochemical
Details: 10 µM macrocycle concentration; for percent residual thrombin activity: crude reactions, Library 1a-l, scaffold AA1-AA2-AA3 combined with 1-16 or '-'; for % thrombin activity, Original screen / % thrombin activity, Repeat screen: macrocycles containing acid 14, crude reaction; for % thrombin activity, Repeat screen: replicate reaction and screen
In short: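 Each crude macrocycle (10 μM) was preincubated 10 min at room temperature with thrombin (2 nM final) in Tris-Cl pH 7.4 containing NaCl, MgCl2, CaCl2, 0.1% BSA, 0.01% Triton X-100 and 0.6% DMSO. Z-Gly-Gly-Arg-AMC (50 μM final) was then added. Inhibition came from fluorescence slopes relative to DMSO-only controls.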

Row | percent residual thrombin activity | % thrombin activity, Original screen | % thrombin activity, Repeat screen | SMILES
1 | 104.679% |  |  | NCCCC[C@@H]1NC(=O)[C@H](Cc2ccc(O)cc2)NC(=O)C2(CC2)CNC(=O)CCSSCCNC1=O [B6-Y-D1/-]
2 |  | 91.5% | 96.1% | O=C1CNC(=O)[C@@H]2CCCN2C(=O)[C@@H](NC(=O)c2ccc(Cl)s2)CSSCCNC(=O)[C@H](Cc2ccccc2)N1 [C B1 G F] ({2Thenoyl(5-Cl)}-CPGF-Cysteamide; disulfide 1-C)
3 |  | 98.5% | 102.3% | O=C1CNC(=O)[C@H](Cc2ccc(O)cc2)NC(=O)[C@@H]2CCCN2C(=O)[C@@H](NC(=O)c2ccc(Cl)s2)CSSCCN1 [C B1 Y G] ({2Thenoyl(5-Cl)}-CPYG-Cysteamide; disulfide 1-C)
4 |  | 110.0% | 114.7% | CC[C@H](C)[C@@H]1NC(=O)CNC(=O)CCNC(=O)[C@@H](NC(=O)c2ccc(Cl)s2)CSSCCNC1=O [C B2 G I]
5 |  | 112.4% | 112.3% | O=C1CCNC(=O)[C@@H](NC(=O)c2ccc(Cl)s2)CSSCCNC(=O)[C@@H](CO)NC(=O)CN1 [C B2 G s]
6 |  | 103.1% | 116.7% | O=C1CNC(=O)c2ccc(cc2)CNC(=O)[C@@H](NC(=O)c2ccc(Cl)s2)CSSCCNC(=O)[C@H](Cc2cnc[nH]2)N1 [C B3 G H]
7 |  | 106.0% | 113.6% | CC[C@H](C)[C@@H]1NC(=O)c2ccc(cc2)CNC(=O)[C@@H](NC(=O)c2ccc(Cl)s2)CSSCCNC(=O)CNC1=O [C B3 I G]
8 |  | 107.3% | 115.5% | CC(C)C1NC(=O)C2CCCN(C2)C(=O)C(NC(=O)c2ccc(Cl)s2)CSSCCNC(=O)CNC1=O (stereo not shown) [C B4 V G]
9 |  | 109.3% | 114.8% | CC(C)C[C@@H]1NC(=O)C2(CC2)CNC(=O)CNC(=O)[C@@H](NC(=O)c2ccc(Cl)s2)CSSCCNC1=O [C G B6 L]
10 |  | 93.7% | 99.7% | O=C1CNC(=O)[C@@H](NC(=O)c2ccc(Cl)s2)CSSCCNC(=O)c2ccc(cc2)CNC(=O)[C@@H](CO)N1 [C G s B3]
11 |  | 111.1% | 111.8% | CC(C)C1NC(=O)C(NC(=O)c2ccc(Cl)s2)CSSCCNC(=O)c2cccc(c2)CNC(=O)CNC1=O (stereo not shown) [C v G B5]
12 | 96.3758% |  |  | CC1NC(=O)C2CCCN2C(=O)C(CCCCNC(=O)c2ccc(Cl)s2)NC(=O)CCSSCCNC1=O (stereo not shown) [D1-B1-a/14] ([Mpa]K(2Thenoyl(5-Cl))PA-Cysteamide; disulfide 1-C; configuration not given here)
13 | 109.951% |  |  | O=C1CCSSCCNC(=O)[C@@H](Cc2ccc(O)cc2)NC(=O)CCNC(=O)[C@H](CCCCNC(=O)c2c[nH]c(=O)cn2)N1 [D1-B2-y/9]
14 | 108.421% |  |  | COc1ccc(C(=O)NCCCC[C@@H]2NC(=O)CCSSCCNC(=O)[C@@H](Cc3ccc(O)cc3)NC(=O)CCNC2=O)cn1 [D1-B2-y/10]
15 | 114.281% |  |  | O=C1CCSSCCNC(=O)[C@@H](Cc2ccc(O)cc2)NC(=O)CCNC(=O)[C@H](CCCCNC(=O)c2ccco2)N1 [D1-B2-y/16]
16 | 103.332% |  |  | CC(C)CC(=O)NCCCC[C@@H]1NC(=O)CCSSCCNC(=O)[C@H](CO)NC(=O)c2ccc(cc2)CNC1=O [D1-B3-S/8]
17 | 105.178% |  |  | O=C1CCSSCCNC(=O)[C@H](CO)NC(=O)c2ccc(cc2)CNC(=O)[C@H](CCCCNC(=O)c2c[nH]c(=O)[nH]c2=O)N1 [D1-B3-S/11]
18 | 103.115% |  |  | Cc1nnsc1C(=O)NCCCC[C@@H]1NC(=O)CCSSCCNC(=O)[C@H](CO)NC(=O)c2ccc(cc2)CNC1=O [D1-B3-S/15]
19 | 108.143% |  |  | CC(C)CC(=O)NCCCC[C@@H]1NC(=O)CCSSCCNC(=O)[C@@H](Cc2ccc(O)cc2)NC(=O)[C@H]2CCCN(C2)C1=O [D1-B4-y/8]
20 | 105.223% |  |  | O=C1CCSSCCNC(=O)C(Cc2ccc(O)cc2)NC(=O)C2CCCN(C2)C(=O)C(CCCCNC(=O)c2c[nH]c(=O)[nH]c2=O)N1 (stereo not shown) [D1-B4-y/11]
21 | 103.012% |  |  | O=C(Cc1c[nH]c2ccccc12)NCCCCC1NC(=O)CCSSCCNC(=O)C(Cc2ccc(O)cc2)NC(=O)C2CCCN(C2)C1=O (stereo not shown) [D1-B4-y/12]
22 | 108.72% |  |  | Cc1nnsc1C(=O)NCCCC[C@@H]1NC(=O)CCSSCCNC(=O)[C@@H](Cc2ccc(O)cc2)NC(=O)[C@H]2CCCN(C2)C1=O [D1-B4-y/15]
23 | 110.104% |  |  | NCCCC[C@@H]1NC(=O)CCSSCCNC(=O)[C@H]2CCCN(C2)C(=O)[C@H](Cc2ccccc2)NC1=O [D1-F-B4/-]
24 | 113.964% |  |  | O=C1CCSSCCNC(=O)C2(CC2)CNC(=O)[C@H](Cc2c[nH]cn2)NC(=O)[C@H](CCCCNC(=O)c2cnccn2)N1 [D1-H-B6/2]

Row | percent residual thrombin activity | % thrombin activity, Original screen | % thrombin activity, Repeat screen | SMILES
25 | 113.747% |  |  | Cc1nnsc1C(=O)NCCCC[C@@H]1NC(=O)CCSSCCNC(=O)C2(CC2)CNC(=O)[C@H](Cc2cnc[nH]2)NC1=O [D1-H-B6/15]
26 | 116.392% |  |  | NCCCC[C@@H]1NC(=O)CCSSCCNC(=O)C2(CC2)CNC(=O)[C@H](Cc2cnc[nH]2)NC1=O [D1-H-B6/-]
27 | 106.199% |  |  | CC[C@H](C)[C@@H]1NC(=O)[C@H](CCCCNC(=O)COc2ccccc2)NC(=O)CCSSCCNC(=O)C2(CC2)CNC1=O [D1-I-B6/13]
28 | 103.501% |  |  | CC[C@H](C)[C@@H]1NC(=O)[C@H](CCCCNC(=O)c2ccco2)NC(=O)CCSSCCNC(=O)C2(CC2)CNC1=O [D1-I-B6/16]
29 | 104.356% |  |  | NC(=O)CCC1NC(=O)C(CCCCNC(=O)c2cnccn2)NC(=O)CCSSCCNC(=O)C2CCCN2C1=O (stereo not shown) [D1-Q-B1/2] ([Mpa]K(Pyrazinecarbonyl)QP-Cysteamide; disulfide 1-C; configuration not given here)
30 | 109.119% |  |  | NC(=O)CC[C@@H]1NC(=O)[C@H](CCCCNC(=O)c2c[nH]c(=O)[nH]c2=O)NC(=O)CCSSCCNC(=O)[C@@H]2CCCN2C1=O [D1-Q-B1/11] ([Mpa]K(Isoorotoyl)QP-Cysteamide; disulfide 1-C)
31 | 104.82% |  |  | NC(=O)CC[C@@H]1NC(=O)[C@H](CCCCNC(=O)Cc2c[nH]c3ccccc23)NC(=O)CCSSCCNC(=O)[C@@H]2CCCN2C1=O [D1-Q-B1/12] ([Mpa]K(X3)QP-Cysteamide; disulfide 1-C)
32 | 104.037% |  |  | NC(=O)CC[C@@H]1NC(=O)[C@H](CCCCNC(=O)COc2ccccc2)NC(=O)CCSSCCNC(=O)[C@@H]2CCCN2C1=O [D1-Q-B1/13] ([Mpa]K(Phenoxyacetyl)QP-Cysteamide; disulfide 1-C)
33 | 108.142% |  |  | NCCCC[C@@H]1NC(=O)CCSSCCNC(=O)[C@@H]2CCCN2C(=O)[C@H](CCC(N)=O)NC1=O [D1-Q-B1/-] ([Mpa]KQP-Cysteamide; disulfide 1-C)
34 | 111.469% |  |  | COc1ccc(C(=O)NCCCC[C@@H]2NC(=O)CCSSCCNC(=O)c3ccc(cc3)CNC(=O)[C@H](CO)NC2=O)cn1 [D1-S-B3/10]
35 | 115.568% |  |  | O=C(COc1ccccc1)NCCCC[C@@H]1NC(=O)CCSSCCNC(=O)c2ccc(cc2)CNC(=O)[C@H](CO)NC1=O [D1-S-B3/13]
36 | 113.1% |  |  | Cc1nnsc1C(=O)NCCCC[C@@H]1NC(=O)CCSSCCNC(=O)c2ccc(cc2)CNC(=O)[C@H](CO)NC1=O [D1-S-B3/15]
37 | 102.192% |  |  | COc1ccc(C(=O)NCCCC[C@@H]2NC(=O)CCSSCCNC(=O)C3(CC3)CNC(=O)[C@H](CO)NC2=O)cn1 [D1-S-B6/10]
38 | 103.758% |  |  | O=C1CCSSCCNC(=O)C2(CC2)CNC(=O)[C@H](CO)NC(=O)[C@H](CCCCNC(=O)c2c[nH]c(=O)[nH]c2=O)N1 [D1-S-B6/11]
39 | 110.303% |  |  | CC(C)CC(=O)NCCCC[C@@H]1NC(=O)CCSSCCNC(=O)C2(CC2)CNC(=O)[C@H](C(C)C)NC1=O [D1-V-B6/8]
40 | 106.409% |  |  | CC(C)[C@@H]1NC(=O)[C@H](CCCCNC(=O)c2c[nH]c(=O)cn2)NC(=O)CCSSCCNC(=O)C2(CC2)CNC1=O [D1-V-B6/9]
41 | 112.935% |  |  | Cc1nnsc1C(=O)NCCCC[C@@H]1NC(=O)CCSSCCNC(=O)C2(CC2)CNC(=O)[C@H](C(C)C)NC1=O [D1-V-B6/15]
42 | 107.867% |  |  | CC(C)[C@@H]1NC(=O)[C@H](CCCCNC(=O)c2ccco2)NC(=O)CCSSCCNC(=O)C2(CC2)CNC1=O [D1-V-B6/16]
43 | 104.624% |  |  | CC[C@H](C)[C@@H]1NC(=O)CCNC(=O)[C@H](CCCNC(=O)c2ccc(OC)nc2)NC(=O)CCSSCCNC1=O [D2-B2-I/10]
44 | 113.677% |  |  | CC[C@H](C)[C@@H]1NC(=O)CCNC(=O)[C@H](CCCNC(=O)c2c[nH]c(=O)[nH]c2=O)NC(=O)CCSSCCNC1=O [D2-B2-I/11]
45 | 111.823% |  |  | CC[C@H](C)[C@@H]1NC(=O)CCNC(=O)[C@H](CCCNC(=O)c2ccco2)NC(=O)CCSSCCNC1=O [D2-B2-I/16]
46 | 109.22% |  |  | O=C1CCSSCCNC(=O)[C@@H](Cc2ccc(O)cc2)NC(=O)CCNC(=O)[C@H](CCCNC(=O)c2ccccc2)N1 [D2-B2-y/1]
47 | 112.114% |  |  | CC(C)CC(=O)NCCC[C@@H]1NC(=O)CCSSCCNC(=O)[C@H](CCC(N)=O)NC(=O)c2ccc(cc2)CNC1=O [D2-B3-Q/8]
48 | 109.29% |  |  | NC(=O)CC[C@@H]1NC(=O)c2ccc(cc2)CNC(=O)[C@H](CCCNC(=O)c2c[nH]c(=O)cn2)NC(=O)CCSSCCNC1=O [D2-B3-Q/9]
